Test results from ChEMBL document CHEMBL3098003, “Structure-based design of 2-aminopyridine oxazolidinones as potent and selective tankyrase inhibitors” (ACS Med Chem Lett, 2013).
Calls of active or inactive are those of the source. No cut-off for these calls is given here.

Assays:
[1] = tested on: Mus musculus; experiment: Toxicity in athymic nude mouse assessed as diarrhea at 100 mg/kg, po bid for 8 days; assay type: organism-based; set-up: dose 100 mg/kg, route oral; details: in vivo, 192 h
[2] = molecular target: Adenosine receptor A2a (Homo sapiens, UniProt P29274); experiment: Binding affinity to adenosine A2A receptor (unknown origin)
[3] = molecular target: Bile salt export pump (Homo sapiens, UniProt O95342); experiment: Inhibition of BSEP (unknown origin)
[4] = molecular target: D(2) dopamine receptor (Homo sapiens, UniProt P14416); experiment: Binding affinity to dopamine D2 receptor (unknown origin)
[5] = tested on: Mus musculus; experiment: Toxicity in athymic nude mouse assessed as hunched posture at 100 mg/kg, po bid for 8 days; assay type: organism-based; set-up: dose 100 mg/kg, route oral; details: in vivo, 192 h
[6] = tested on: Mus musculus; experiment: Toxicity in athymic nude mouse assessed as cold at 100 mg/kg, po bid for 8 days; assay type: organism-based; set-up: dose 100 mg/kg, route oral; details: in vivo, 192 h
[7] = molecular target: Somatostatin receptor type 4 (Homo sapiens, UniProt P31391); experiment: Binding affinity to SST4 receptor (unknown origin)
[8] = molecular target: Muscarinic acetylcholine receptor M1 (Homo sapiens, UniProt P11229); experiment: Binding affinity to muscarinic M1 receptor (unknown origin)
[9] = Terminal plasma concentration in athymic nude mouse xenografted with human DLD1 cells at 200 mg/kg, po bid for 3 days; assay type: ADME, organism-based, DLD-1; set-up: dose 200 mg/kg, route oral; details: read-out: Cp(T)
[10] = tested on: Mus musculus; experiment: In vivo inhibition of tankyrase-mediated axin2 gene expression in tumor of athymic nude mouse xenografted with human DLD1 cells at 200 mg/kg, po bid for 3 days by STF assay; assay type: functional, organism-based; set-up: dose 200 mg/kg; details: DLD-1

Chain of Somatostatin receptor type 4 (P31391 whole entry): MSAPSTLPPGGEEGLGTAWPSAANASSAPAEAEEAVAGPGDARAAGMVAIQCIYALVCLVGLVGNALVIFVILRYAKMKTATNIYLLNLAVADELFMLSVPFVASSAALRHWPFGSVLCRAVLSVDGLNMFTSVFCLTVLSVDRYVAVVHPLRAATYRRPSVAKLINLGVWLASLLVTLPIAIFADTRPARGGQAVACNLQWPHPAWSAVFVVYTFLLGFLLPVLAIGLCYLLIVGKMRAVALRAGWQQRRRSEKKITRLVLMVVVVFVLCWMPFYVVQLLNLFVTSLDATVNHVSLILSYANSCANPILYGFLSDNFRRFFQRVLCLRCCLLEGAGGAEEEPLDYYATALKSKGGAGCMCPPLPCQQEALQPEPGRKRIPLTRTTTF
Chain of Muscarinic acetylcholine receptor M1 (P11229 whole entry): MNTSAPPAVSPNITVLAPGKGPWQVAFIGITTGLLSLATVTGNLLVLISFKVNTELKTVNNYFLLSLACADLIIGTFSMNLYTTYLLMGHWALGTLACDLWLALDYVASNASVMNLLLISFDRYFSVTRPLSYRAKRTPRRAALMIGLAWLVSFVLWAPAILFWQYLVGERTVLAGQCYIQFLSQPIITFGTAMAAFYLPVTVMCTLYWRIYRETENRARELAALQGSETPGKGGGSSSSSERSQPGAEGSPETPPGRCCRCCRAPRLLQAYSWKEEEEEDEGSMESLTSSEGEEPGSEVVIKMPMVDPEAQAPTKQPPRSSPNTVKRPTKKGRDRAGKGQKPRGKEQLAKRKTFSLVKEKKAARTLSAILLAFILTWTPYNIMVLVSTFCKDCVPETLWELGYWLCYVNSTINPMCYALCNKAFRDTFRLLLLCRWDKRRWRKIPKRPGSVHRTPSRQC
Chain of Adenosine receptor A2a (P29274 whole entry): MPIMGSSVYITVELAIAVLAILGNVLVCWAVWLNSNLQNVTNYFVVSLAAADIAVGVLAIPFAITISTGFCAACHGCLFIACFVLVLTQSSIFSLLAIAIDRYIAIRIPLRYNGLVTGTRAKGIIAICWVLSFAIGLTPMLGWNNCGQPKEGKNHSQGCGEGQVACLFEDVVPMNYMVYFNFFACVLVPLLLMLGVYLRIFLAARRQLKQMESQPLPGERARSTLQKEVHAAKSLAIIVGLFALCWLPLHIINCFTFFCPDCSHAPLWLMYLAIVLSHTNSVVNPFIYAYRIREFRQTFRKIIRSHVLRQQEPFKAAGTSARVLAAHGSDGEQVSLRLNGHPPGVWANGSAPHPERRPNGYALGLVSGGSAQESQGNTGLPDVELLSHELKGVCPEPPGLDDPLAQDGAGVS
Chain of Bile salt export pump (O95342 whole entry): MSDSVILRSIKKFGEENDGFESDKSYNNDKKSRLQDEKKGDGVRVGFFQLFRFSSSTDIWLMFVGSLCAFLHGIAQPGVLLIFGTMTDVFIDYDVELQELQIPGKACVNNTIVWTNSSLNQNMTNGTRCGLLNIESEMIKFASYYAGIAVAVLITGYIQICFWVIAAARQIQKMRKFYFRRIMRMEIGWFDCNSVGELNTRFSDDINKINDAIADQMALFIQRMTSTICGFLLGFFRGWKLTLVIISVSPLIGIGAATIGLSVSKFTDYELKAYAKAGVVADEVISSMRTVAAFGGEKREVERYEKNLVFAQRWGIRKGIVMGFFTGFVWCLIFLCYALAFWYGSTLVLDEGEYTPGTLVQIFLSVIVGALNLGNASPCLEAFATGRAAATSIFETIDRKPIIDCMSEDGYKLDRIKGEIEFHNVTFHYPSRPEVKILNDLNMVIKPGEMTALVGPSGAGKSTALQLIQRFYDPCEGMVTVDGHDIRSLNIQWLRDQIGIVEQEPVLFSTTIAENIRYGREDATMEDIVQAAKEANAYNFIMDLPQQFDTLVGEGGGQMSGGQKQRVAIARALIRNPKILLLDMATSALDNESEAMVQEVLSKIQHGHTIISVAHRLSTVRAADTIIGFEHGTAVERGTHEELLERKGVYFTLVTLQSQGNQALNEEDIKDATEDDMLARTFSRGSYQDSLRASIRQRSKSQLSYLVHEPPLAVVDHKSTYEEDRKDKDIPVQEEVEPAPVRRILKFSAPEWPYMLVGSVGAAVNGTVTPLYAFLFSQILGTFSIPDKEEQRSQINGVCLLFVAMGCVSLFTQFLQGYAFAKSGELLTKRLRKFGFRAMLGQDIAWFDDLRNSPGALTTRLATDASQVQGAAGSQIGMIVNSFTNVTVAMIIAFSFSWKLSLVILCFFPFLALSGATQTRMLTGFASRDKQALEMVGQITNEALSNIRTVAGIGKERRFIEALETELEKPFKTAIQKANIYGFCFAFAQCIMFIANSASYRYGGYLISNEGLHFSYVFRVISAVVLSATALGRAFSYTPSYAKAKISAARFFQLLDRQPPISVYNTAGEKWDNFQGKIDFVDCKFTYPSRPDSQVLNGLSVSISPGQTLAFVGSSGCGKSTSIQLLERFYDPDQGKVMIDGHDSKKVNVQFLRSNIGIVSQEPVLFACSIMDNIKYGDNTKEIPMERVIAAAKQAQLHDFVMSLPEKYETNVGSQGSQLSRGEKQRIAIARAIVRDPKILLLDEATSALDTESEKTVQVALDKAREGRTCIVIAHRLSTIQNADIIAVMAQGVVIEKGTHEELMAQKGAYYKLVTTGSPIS
Chain of D(2) dopamine receptor (P14416 whole entry): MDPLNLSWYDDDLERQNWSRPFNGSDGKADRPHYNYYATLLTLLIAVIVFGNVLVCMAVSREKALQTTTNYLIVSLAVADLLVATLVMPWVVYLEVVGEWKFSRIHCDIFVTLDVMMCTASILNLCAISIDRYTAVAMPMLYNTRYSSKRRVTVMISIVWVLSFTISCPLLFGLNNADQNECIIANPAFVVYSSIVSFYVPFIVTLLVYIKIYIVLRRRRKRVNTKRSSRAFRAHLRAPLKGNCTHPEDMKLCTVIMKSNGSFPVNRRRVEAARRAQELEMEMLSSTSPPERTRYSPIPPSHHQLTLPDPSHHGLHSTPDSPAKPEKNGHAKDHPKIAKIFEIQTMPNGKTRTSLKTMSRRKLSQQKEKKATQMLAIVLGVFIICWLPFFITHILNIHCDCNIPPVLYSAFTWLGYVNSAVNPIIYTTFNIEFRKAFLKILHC

Row | concentration at 72 h [9] [µM] | SMILES | Activity [1] | IC50 [2] [µM] | IC50 [3] [µM] | IC50 [4] [µM] | Activity [5] | Activity [6] | IC50 [7] [µM] | IC50 [8] [µM] | inhibition [10]
1 | – | CC1(C)OC(=O)N([C@H]2CC[C@H](c3cnc(N)c(-c4ncccn4)c3)CC2)[C@H]1c1ccccc1 | Toxic | > 48.5 | 11 | > 48.5 | Toxic | Toxic | > 48.5 | > 48.5 | –
2 | 22.1 | CC1(C)OC(=O)N(c2ccc(-c3cnc(N)c(-c4ncccn4)c3)cc2)[C@H]1c1ccccc1 | – | – | – | – | – | – | – | – | Active
